From patent US11390626B2, “Pyrazolopyrimidine modulators of RAS GTPase” (Tosk, Inc., priority 2019, dated 2022) come the findings set out here.

Holding throughout (format): cell-based, human
The subject of test [1] is phosphorylated ERK. Description: Phosphorylated ERK western blot in SW1990 cells. The following applies: 24 hours with compound, EGF 10 ng/mL 15 minutes, FIG. 2. As to the method: (§1) Structure 1 decreased both phosphorylated AKT and phosphorylated ERK. Structure 1 had no effect on AKT or ERK (data not shown).
(§2) A method used to measure ERK and AKT is based on Welsch et al, Cell 168: 878-889 February 2017. SW1990 cells, growth driven by a G12D kRAS mutation and derived from human, pancreatic cancer cells, are plated in a 6-well plate at 1.5×10^6 cells per plate and grown overnight at 37° C. Media is replaced with serum-free media and the plate incubated an additional 24 hours. Media is replaced with media with or without compound and incubated for an additional 24 hours. EGF is added at a concentration of 10 ng/mL. After 15 minutes, cells are washed with ice cold PBS and lysed with RIPA buffer.
(§3) The lysate is processed by electrophoresis using a Mini-PROTEAN® gel mounted in a Mini-PROTEAN® Tetra Cell (cassette). Both the gel and the holding assembly (cassette) are purchased from BIORAD. The gel in the assembly is placed, electrode up, in the buffer tanks. The Tris/glycine/SDS buffer is added to both the inner buffer chamber (200 mL) and the outer buffer chamber (800 mL). […]
(§4) The membrane is placed into TTBS buffer containing SuperBlock T20 (Thermo Scientific) and incubated for 1 hour at room temperature. […] The anti pERK detected both pERK 1 and 2 (T202/Y204). […]

Test [2] deals with phosphorylated AKT. Description: Phosphorylated AKT western blot in SW1990 cells. The following applies: 24 hours with compound, EGF 10 ng/mL 15 minutes, FIG. 2. The procedure: as §1, §2, §3, §4
For test [3], the system named is non-phosphorylated ERK. Description: Non-phosphorylated ERK western blot in SW1990 cells. The following applies: data not shown. The procedure: as §1, §2, §3, §4

“Also recorded” adds a separate entry of the source.

In the case of `Cc1nc2c(-c3ccccc3)c(C)nn2c(NCc2ccccn2)c1Cc1ccccc1` [Structure 1], the “Effect on phosphorylated ERK” value in test [1] is on record as “decreased; also recorded: suppressed”. The “Effect on phosphorylated AKT” value in test [2] was “decreased; also recorded: suppressed”. In test [3], the “Effect on non-phosphorylated ERK” value is “no effect; also recorded: without affecting”.
